Results as given in patent US20100267819A1, “PHARMACEUTICAL COMPOSITION FOR DIABETIC NEPHROPATHY AND ITS PREPARATION AND APPLICATION” (Guangzhou Consun Medicine R&D Medicine, priority 2009, published 2010).

Tests used:
[1] = test system: Rat messangial cell cell line HBZY-1; assay: Hypertrophy of rat mesangial cells cultured under high glucose (HE staining); assay type: cell-based; settings: high glucose 25 mmol/L, 48 h, extract 0.1 g/L, compounds 1, 0.1, 0.01 μmol/L, co-use 0.06:0.03, 0.05:0.05, 0.03:0.06 μmol/L
Procedure: (§1) Take the rat mesangial cells in log phase growth, prepare into unicell suspension (5×10^4 cells/ml) with 5% DMEM medium of newborn calf serum, inoculate to the 24 well plate coated with coverslip for 1 ml/well (cell quantity: 5×10^4/well), incubated under 5% CO2 incubator at 37° C. for 24 hours, added the DMEM medium without serum, incubated 24 hours to make all the cells to anestrum. Discard the supernatant, added 900 μl DMEM medium and 100 μl different concentration amylaceum (each concentration for 3 repeat) and incubated 24 h, 48 h, 72 h and 96 h, respectively. Observed the modeling results after staining with HE and PAS. […] Put the coverslips pre-treatment by poly-L-lysine into 24-well cell culture plates before added the unicell suspension, then cultured these cells until the step of synchronization. […] Each group repeats for 3 times. Then, all the groups are incubated under 5% CO2 incubator at 37° C. for 48 h. After that, take out of the coverslips for HE staining, PAS staining and immunocytochemistry staining Routine HE Staining, Routine PAS Staining, CTGF Staining

[2] = test system: Rat messangial cell cell line HBZY-1; assay: Extracellular matrix accrementition of rat mesangial cells cultured under high glucose (PAS staining); assay type: cell-based; settings: high glucose 25 mmol/L, 48 h, extract 0.1 g/L, compounds 1, 0.1, 0.01 μmol/L, co-use 0.06:0.03, 0.05:0.05, 0.03:0.06 μmol/L
Procedure: as §1

CTGF = CTGF express of rat mesangial cells cultured under high glucose (immunocytochemistry); assay type: cell-based; settings: high glucose 25 mmol/L, 48 h, CTGF staining; extract 0.1 g/L, compounds 1, 0.1, 0.01 μmol/L, co-use 0.06:0.03, 0.05:0.05, 0.03:0.06 μmol/L
Procedure: as §1, with “Routine HE Staining, Routine PAS Staining, CTGF Staining” left out

db|db mouse [3] = assay: Weight of db|db mouse of diabetic nephropathy; assay type: in vivo; settings: for Weight: db|db mouse; for weight of db|db mouse: vs model group, P<0.05, intragastric
Procedure: (§2) During the experiment, all the mouse are bred in lamina flow cage, free to food and water. Water and underpad are changed every day to keep the cage clean, and the water, seedstuff, underpad are stationary. […] All the appliances and food are sterilized everyday. […] Moreover, 10 8-week-old B6 mouse are taken as the normal control. Each group is given 0.4 ml corresponding drug in different concertration or physiological saline by intragastric administration for 5 weeks. Determinate the food-intake and water-intake, weigh every week, determinate the blood glucose every week.

db|db mouse [4] = assay: Blood glucose of db|db mouse in diabetic nephropathy; assay type: in vivo; settings: for Blood glucose value: db|db mouse; for blood glucose of db|db mouse: final phase of administration, vs model group, P<0.05
Procedure: as §2

db|db mouse [5] = assay: Urine volume, urine total protein and urine creatinine in 24 hours of db|db mouse in diabetic nephropathy; assay type: in vivo; settings: for Total protein / Urine creatinine / Urine volume: 24 hour urine after 5 weeks; for urine creatinine in 24 hours / urine total protein in 24 hours / urine volume in 24 hours: vs model group
Procedure: as §2

db|db mouse [6] = assay: Kidney weight and kidney index of db|db mouse in diabetic nephropathy; assay type: in vivo; settings: after 5 weeks; for Kidned index: kidney weight/body weight×1000
Procedure: as §2

[7] = 2 weeks, 0.5 mg/kg intragastric
[8] = 2 weeks, 1.0 mg/kg intragastric
[9] = 2 weeks, 2.0 mg/kg intragastric
[10] = 3 weeks, 0.5 mg/kg intragastric
[11] = 3 weeks, 1.0 mg/kg intragastric
[12] = 3 weeks, 2.0 mg/kg intragastric
[13] = 4 weeks, 0.5 mg/kg intragastric
[14] = 4 weeks, 1.0 mg/kg intragastric
[15] = 4 weeks, 2.0 mg/kg intragastric
[16] = 5 weeks, 0.5 mg/kg intragastric
[17] = 5 weeks, 1.0 mg/kg intragastric
[18] = 5 weeks, 2.0 mg/kg intragastric

## COc1cc2ccc(=O)oc2cc1O [7-hydroxy-6-methoxycomarin, 7-hydroxy-6-methoxycoumarin]
[1]
  hypertrophy of rat mesangial cells induced by high glucose: restrain significantly the hypertrophy
[2]
  extracellular matrix of rat mesangial cells induced by high glucose: decrease the extracellular matrix
CTGF
  CTGF express of rat mesangial cells induced by high glucose: decrease the CTGF express
db|db mouse [3]; 0 week, 0.5 mg/kg intragastric
  Weight: 23.2 ± 0.6 g
db|db mouse [3]; 0 week, 1.0 mg/kg intragastric
  Weight: 24.1 ± 0.5 g
db|db mouse [3]; 0 week, 2.0 mg/kg intragastric
  Weight: 23.9 ± 0.5 g
db|db mouse [3]; 1 week, 0.5 mg/kg intragastric
  Weight: 30.6 ± 1.2 g
db|db mouse [3]; 1 week, 1.0 mg/kg intragastric
  Weight: 31.8 ± 1.0 g
db|db mouse [3]; 1 week, 2.0 mg/kg intragastric
  Weight: 32.0 ± 1.3 g
db|db mouse [3]; [7]
  Weight: 36.4 ± 1.5 g
db|db mouse [3]; [8]
  Weight: 33.7 ± 1.4 g
db|db mouse [3]; [9]
  Weight: 34.3 ± 1.9 g
db|db mouse [3]; [10]
  Weight: 40.1 ± 2.5 g
db|db mouse [3]; [11]
  Weight: 38.8 ± 1.4 g
db|db mouse [3]; [12]
  Weight: 39.5 ± 1.8 g
db|db mouse [3]; [13]
  Weight: 43.0 ± 2.1 g
db|db mouse [3]; [14]
  Weight: 42.5 ± 2.5 g
db|db mouse [3]; [15]
  Weight: 44.0 ± 3.2 g
db|db mouse [3]; [16]
  Weight: 47.0 ± 3.9 g
db|db mouse [3]; [17]
  Weight: 45.8 ± 3.0 g
db|db mouse [3]; [18]
  Weight: 45.7 ± 4.5 g
db|db mouse [3]; 5 weeks
  weight of db|db mouse: restrain the weight
db|db mouse [4]; 1 week, 0.5 mg/kg intragastric
  Blood glucose value: 13.3 ± 4.5 mmol/L
db|db mouse [4]; 1 week, 1.0 mg/kg intragastric
  Blood glucose value: 13.5 ± 4.0 mmol/L
db|db mouse [4]; 1 week, 2.0 mg/kg intragastric
  Blood glucose value: 13.8 ± 4.7 mmol/L
db|db mouse [4]; [7]
  Blood glucose value: 13.4 ± 2.7 mmol/L
db|db mouse [4]; [8]
  Blood glucose value: 13.0 ± 3.2 mmol/L
db|db mouse [4]; [9]
  Blood glucose value: 13.3 ± 2.7 mmol/L
db|db mouse [4]; [10]
  Blood glucose value: 13.5 ± 3.2 mmol/L
db|db mouse [4]; [11]
  Blood glucose value: 12.6 ± 4.8 mmol/L
db|db mouse [4]; [12]
  Blood glucose value: 13.1 ± 4.7 mmol/L
db|db mouse [4]; [13]
  Blood glucose value: 12.1 ± 3.6 mmol/L
db|db mouse [4]; [14]
  Blood glucose value: 10.8 ± 2.5 mmol/L
db|db mouse [4]; [15]
  Blood glucose value: 10.4 ± 3.9 mmol/L
db|db mouse [4]; [16]
  Blood glucose value: 13.0 ± 2.2 mmol/L
db|db mouse [4]; [17]
  Blood glucose value: 10.4 ± 2.5 mmol/L
db|db mouse [4]; [18]
  Blood glucose value: 11.3 ± 4.4 mmol/L
db|db mouse [4]
  blood glucose of db|db mouse: remarkably decrease the blood glucose
db|db mouse [5]; 0.5 mg/kg intragastric
  Total protein: 1.398 ± 0.372 mg
  Urine creatinine: 1.85 ± 0.56 mmol/L
  Urine volume: 0.95 ± 0.34 mL
db|db mouse [5]; 1.0 mg/kg intragastric
  Total protein: 1.102 ± 0.249 mg
  Urine creatinine: 3.20 ± 0.85 mmol/L
  Urine volume: 0.75 ± 0.25 mL
db|db mouse [5]; 2.0 mg/kg intragastric
  Total protein: 0.878 ± 0.352 mg
  Urine creatinine: 2.81 ± 0.76 mmol/L
  Urine volume: 0.78 ± 0.31 mL
db|db mouse [5]
  urine creatinine in 24 hours: elevate the urine creatinine
  urine total protein in 24 hours: decrease
  urine volume in 24 hours: decrease the urine volume
db|db mouse [6]
  kidney index: obviously decrease
  kidney weight: obviously decrease
db|db mouse [6]; 0.5 mg/kg intragastric
  Kidned weight: 0.29 ± 0.02 g
  Kidned index: 12.6 ± 1.0 ‰
db|db mouse [6]; 1.0 mg/kg intragastric
  Kidned weight: 0.25 ± 0.03 g
db|db mouse [6]; 2.0 mg/kg intragastric
  Kidned weight: 0.24 ± 0.04 g
  Kidned index: 9.1 ± 1.7 ‰

## O=c1ccc2ccc(O)cc2o1 [7-hydroxycoumarin]
[1]
  hypertrophy of rat mesangial cells induced by high glucose: restrain significantly the hypertrophy
[2]
  extracellular matrix of rat mesangial cells induced by high glucose: decrease the extracellular matrix
CTGF
  CTGF express of rat mesangial cells induced by high glucose: decrease the CTGF express
db|db mouse [3]; 0 week, 0.5 mg/kg intragastric
  Weight: 24.5 ± 0.5 g
db|db mouse [3]; 0 week, 1.0 mg/kg intragastric
  Weight: 23.4 ± 0.5 g
db|db mouse [3]; 0 week, 2.0 mg/kg intragastric
  Weight: 23.7 ± 0.6 g
db|db mouse [3]; 1 week, 0.5 mg/kg intragastric
  Weight: 31.5 ± 1.5 g
db|db mouse [3]; 1 week, 1.0 mg/kg intragastric
  Weight: 30.2 ± 1.4 g
db|db mouse [3]; 1 week, 2.0 mg/kg intragastric
  Weight: 30.3 ± 0.5 g
db|db mouse [3]; [7]
  Weight: 35.8 ± 1.8 g
db|db mouse [3]; [8]
  Weight: 34.6 ± 1.4 g
db|db mouse [3]; [9]
  Weight: 35.5 ± 1.7 g
db|db mouse [3]; [10]
  Weight: 39.4 ± 2.0 g
db|db mouse [3]; [11]
  Weight: 40.0 ± 2.7 g
db|db mouse [3]; [12]
  Weight: 38.6 ± 1.9 g
db|db mouse [3]; [13]
  Weight: 43.9 ± 3.1 g
db|db mouse [3]; [14]
  Weight: 43.1 ± 2.8 g
db|db mouse [3]; [15]
  Weight: 42.3 ± 2.8 g
db|db mouse [3]; [16]
  Weight: 46.4 ± 4.6 g
db|db mouse [3]; [17]
  Weight: 45.2 ± 4.1 g
db|db mouse [3]; [18]
  Weight: 46.1 ± 5.3 g
db|db mouse [3]; 5 weeks
  weight of db|db mouse: restrain the weight
db|db mouse [4]; 1 week, 0.5 mg/kg intragastric
  Blood glucose value: 13.7 ± 4.1 mmol/L
db|db mouse [4]; 1 week, 1.0 mg/kg intragastric
  Blood glucose value: 13.4 ± 4.6 mmol/L
db|db mouse [4]; 1 week, 2.0 mg/kg intragastric
  Blood glucose value: 13.0 ± 3.6 mmol/L
db|db mouse [4]; [7]
  Blood glucose value: 13.6 ± 2.9 mmol/L
db|db mouse [4]; [8]
  Blood glucose value: 13.4 ± 2.6 mmol/L
db|db mouse [4]; [9]
  Blood glucose value: 13.1 ± 5.1 mmol/L
db|db mouse [4]; [10]
  Blood glucose value: 12.9 ± 2.9 mmol/L
db|db mouse [4]; [11]
  Blood glucose value: 13.9 ± 4.3 mmol/L
db|db mouse [4]; [12]
  Blood glucose value: 13.7 ± 5.1 mmol/L
db|db mouse [4]; [13]
  Blood glucose value: 11.2 ± 4.0 mmol/L
db|db mouse [4]; [14]
  Blood glucose value: 11.2 ± 4.4 mmol/L
db|db mouse [4]; [15]
  Blood glucose value: 10.1 ± 2.4 mmol/L
db|db mouse [4]; [16]
  Blood glucose value: 12.1 ± 1.9 mmol/L
db|db mouse [4]; [17]
  Blood glucose value: 10.3 ± 2.0 mmol/L
db|db mouse [4]; [18]
  Blood glucose value: 10.6 ± 3.0 mmol/L
db|db mouse [4]
  blood glucose of db|db mouse: remarkably decrease the blood glucose
db|db mouse [5]; 0.5 mg/kg intragastric
  Total protein: 1.205 ± 0.541 mg
  Urine creatinine: 2.06 ± 0.65 mmol/L
  Urine volume: 1.03 ± 0.28 mL
db|db mouse [5]; 1.0 mg/kg intragastric
  Total protein: 0.996 ± 0.338 mg
  Urine creatinine: 2.30 ± 0.71 mmol/L
  Urine volume: 0.72 ± 0.30 mL
db|db mouse [5]; 2.0 mg/kg intragastric
  Total protein: 1.147 ± 0.305 mg
  Urine creatinine: 2.79 ± 0.54 mmol/L
  Urine volume: 0.74 ± 0.33 mL
db|db mouse [5]
  urine creatinine in 24 hours: elevate the urine creatinine
  urine total protein in 24 hours: decrease
  urine volume in 24 hours: decrease the urine volume
db|db mouse [6]
  kidney index: obviously decrease
  kidney weight: obviously decrease
db|db mouse [6]; 0.5 mg/kg intragastric
  Kidned weight: 0.28 ± 0.04 g
  Kidned index: 11.8 ± 1.5 ‰
db|db mouse [6]; 1.0 mg/kg intragastric
  Kidned weight: 0.26 ± 0.03 g
db|db mouse [6]; 2.0 mg/kg intragastric
  Kidned weight: 0.27 ± 0.02 g
  Kidned index: 9.4 ± 0.3 ‰
